# Source: PMC3509069, “A DKP Cyclo(L-Phe-L-Phe) Found in Chicken Essence Is a Dual Inhibitor of the Serotonin Transporter and Acetylcholinesterase” (PLoS ONE, 2012)
# Biological target: T1, acetylcholinesterase (AChE) (Homo sapiens, UniProt P22303)
# T1 construct: amphiphilic form from human erythrocytes
# Assay: colorimetric AChE assay with MATP+ substrate
# Format: biochemical
# T1 sequence (P22303 other isoform, or with tags, fused parts or gaps): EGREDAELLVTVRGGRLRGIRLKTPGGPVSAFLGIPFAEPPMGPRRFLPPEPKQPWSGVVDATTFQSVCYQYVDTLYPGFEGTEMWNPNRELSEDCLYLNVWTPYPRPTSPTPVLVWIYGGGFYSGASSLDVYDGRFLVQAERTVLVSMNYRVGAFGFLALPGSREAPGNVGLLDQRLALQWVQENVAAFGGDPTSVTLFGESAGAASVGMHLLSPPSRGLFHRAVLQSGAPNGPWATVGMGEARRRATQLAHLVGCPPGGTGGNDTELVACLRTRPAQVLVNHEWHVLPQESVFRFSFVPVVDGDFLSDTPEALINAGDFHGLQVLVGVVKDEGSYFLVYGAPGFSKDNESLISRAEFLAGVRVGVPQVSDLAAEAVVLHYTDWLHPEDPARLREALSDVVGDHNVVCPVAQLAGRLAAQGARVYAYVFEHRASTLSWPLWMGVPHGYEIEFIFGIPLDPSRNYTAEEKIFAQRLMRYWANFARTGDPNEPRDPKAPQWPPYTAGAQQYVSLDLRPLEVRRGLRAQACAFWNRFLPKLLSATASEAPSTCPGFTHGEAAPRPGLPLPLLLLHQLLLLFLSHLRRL
row,Structure (SMILES),IC50 [µM]
1,O=C1NC(Cc2ccccc2)C(=O)NC1Cc1ccccc1 [cyclo(L-Phe-L-Phe)],~3.4
2,O=C1[C@@H]2CCCN2C(=O)[C@@H]2CCCN12 [cyclo(L-Pro-L-Pro)],160
